From ChEMBL document CHEMBL5729330, “Galactoside inhibitor of galectins” (2022) come the findings set out here.

The target in this assay is Galectin-3 (Homo sapiens, UniProt P17931). Briefly: Fluorescence Anisotropy Assay: The affinity of Example 1-71 for galectins were determined by a fluorescence anisotropy assay where the compound was used as an inhibitor of the interaction between galectin and a fluorescein tagged saccharide probe.
Galectin-3, sequence (P17931 whole entry): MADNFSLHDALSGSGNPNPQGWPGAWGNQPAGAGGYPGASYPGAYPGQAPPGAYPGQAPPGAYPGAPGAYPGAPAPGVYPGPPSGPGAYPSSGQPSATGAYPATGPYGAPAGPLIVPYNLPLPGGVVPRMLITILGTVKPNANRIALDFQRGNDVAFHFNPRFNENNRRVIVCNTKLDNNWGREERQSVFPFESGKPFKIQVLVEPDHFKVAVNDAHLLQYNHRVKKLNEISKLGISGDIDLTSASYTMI
In turn, `COC1[C@@H](Sc2cc(Br)cnc2C(=O)N2CCC2)OC(CO)[C@H](O)[C@@H]1n1cc(-c2ccc(Cl)c(F)c2)nn1` (some centres undefined) came in with a dissociation constant (Kd) of 7 nM. On to `COC1[C@@H](Sc2cc(Br)cnc2C(=O)N2CCC2)OC(CO)[C@H](O)[C@@H]1n1cc(-c2cc(F)c(F)c(F)c2)nn1` (some centres undefined), for which binding was put at a Kd of 6 nM. Turning to `COC1[C@@H](Sc2cc(Cl)cnc2C(=O)N2CCC2)OC(CO)[C@H](O)[C@@H]1n1cc(-c2ccc(Cl)c(F)c2)nn1` (some centres undefined), the affinity, expressed as Kd, was 21 nM. Under `COC1[C@@H](Sc2cc(Cl)cnc2C(=O)N2CCC2)OC(CO)[C@H](O)[C@@H]1n1cc(-c2cc(F)c(F)c(F)c2)nn1` (some centres undefined) stands 10 nM.

`CCOC1[C@@H](Sc2cc(Cl)cnc2C(=O)N2CCC2)OC(CO)[C@H](O)[C@@H]1n1cc(-c2ccc(Cl)c(F)c2)nn1` (some centres undefined) registered a Kd of 17 nM. `COC1[C@@H](Sc2cc(Cl)cnc2C(=O)N2CCC2)OC(CO)[C@H](O)[C@@H]1n1cc(-c2cc(F)c(Cl)c(F)c2)nn1` (some centres undefined) came in with an equilibrium dissociation constant (Kd) of 16 nM.

On to `CCOC1[C@@H](Sc2cc(Cl)cnc2C(=O)N2CCC2)OC(CO)[C@H](O)[C@@H]1n1cc(-c2cc(F)c(Cl)c(F)c2)nn1` (some centres undefined), for which the dissociation constant Kd is 11 nM. The compound `CCOC1[C@@H](Sc2cc(Cl)cnc2C(=O)N2CCC2)OC(CO)[C@H](O)[C@@H]1n1cc(-c2cc(F)c(F)c(F)c2)nn1` (some centres undefined) came in with a Kd of 21 nM.

Turning to `CCOC1[C@@H](Sc2cc(Br)cnc2C(=O)N2CCC2)OC(CO)[C@H](O)[C@@H]1n1cc(-c2ccc(Cl)c(F)c2)nn1` (some centres undefined), the Kd turned out to be 8 nM.
